The source of these data is US5962434A, “Compounds for stimulating nerve growth” (The Johns Hopkins University School of Medicine, priority 1996, dated 1999).

This assay has as its target T1, myelin-associated glycoprotein (MAG) (Rattus norvegicus, UniProt P07722).
T1 sequence (P07722 20-626): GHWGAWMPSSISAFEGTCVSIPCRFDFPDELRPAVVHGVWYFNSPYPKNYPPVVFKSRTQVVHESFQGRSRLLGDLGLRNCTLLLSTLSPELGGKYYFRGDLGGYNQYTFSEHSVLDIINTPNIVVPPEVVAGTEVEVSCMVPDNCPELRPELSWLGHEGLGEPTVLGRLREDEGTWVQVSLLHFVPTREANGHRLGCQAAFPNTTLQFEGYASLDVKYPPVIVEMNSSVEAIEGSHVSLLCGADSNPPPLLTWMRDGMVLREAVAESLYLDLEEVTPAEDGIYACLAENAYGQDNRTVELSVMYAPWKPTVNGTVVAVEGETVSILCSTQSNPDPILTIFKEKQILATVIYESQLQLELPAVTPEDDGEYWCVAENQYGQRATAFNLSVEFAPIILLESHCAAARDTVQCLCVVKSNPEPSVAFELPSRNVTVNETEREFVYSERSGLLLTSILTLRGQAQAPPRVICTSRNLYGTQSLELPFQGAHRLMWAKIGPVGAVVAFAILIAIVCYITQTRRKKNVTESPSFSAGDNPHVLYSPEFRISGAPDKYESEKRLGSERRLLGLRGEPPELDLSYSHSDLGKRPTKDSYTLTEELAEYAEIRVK
Nature of the assay: Adherence of MAG-transfected COS cells to microwell surfaces on which gangliosides/glycolipids were adsorbed (LDH activity). The following applies: for support of MAG-mediated cell adhesion: structure-function comparison, FIGS. 1C and 2; for adhesion of MAG-transfected cells after neuraminidase treatment of the absorbed ganglioside: Vibrio cholerae neuraminidase-treated microwells; for MAG-transfected COS cells added that adhered: ganglioside-absorbed wells.

Consider “NeuAc α2,3 Gal β1,3 GalNAc β1,4(NeuAc α2,3)Gal β1, 4Glcβ1,1'Ceramide [GD1a]”, for which the “binding compared to GM1b” value is reported as “enhanced binding” and the “support of MAG-mediated cell adhesion” value is listed as “supported MAG-mediated cell adhesion”.

Regarding “NeuAc α2,3 Gal β1,3(NeuAc α2,6) GalNAc β1,4(NeuAc α2,8 NeuAc α2,3)Gal β1,4Glc β1,1'Ceramide [GQ1bα]”, the “adhesion of MAG-transfected cells after neuraminidase treatment of the absorbed ganglioside” value was “completely blocked” and the “MAG-transfected COS cells added that adhered” value is 70-80%. In addition, the “potency at supporting MAG-mediated cell adhesion relative to GT1b” value (more potent than GT1b, FIGS. 2 and 3) stood at 8 fold.

As to “NeuAc α2,3 Gal β1,3GalNAc β1,4(NeuAc α2,8 NeuAc α2,3) Gal β1, 4 Glc β1,1'Ceramide [GT1b]”, the “adhesion of MAG-transfected cells after neuraminidase treatment of the absorbed ganglioside” value is “did not support adhesion”, the “binding compared to GM1b” value is “enhanced binding”, the “MAG-transfected COS cells added that adhered” value is recorded as 30-40% and the “support of MAG-mediated cell adhesion” value is “supported MAG-mediated cell adhesion”. Besides, under “artificial membrane monolayer with phosphatidylcholine and cholesterol, FIG. 1B”, the “adherence of MAG-transfected COS cells to ganglioside-absorbed surface” value was “adhered in a concentration-dependent manner”. Under “control-transfected COS cells, FIG. 1B”, the “adherence of control-transfected COS cells” value is reported as “did not bind”. In addition, under “control-treated (no neuraminidase) microwells, FIG. 1D”, the “adhesion of MAG-transfected cells to control-treated microwells” value is on record as “supported adhesion”.
